Results published in patent US20260116920A1, “HUMAN TRANSFERRIN RECEPTOR BINDING PEPTIDE” (PEPTIDREAM INC., priority 2021, published 2026).
Starred links: 1 amine or outer side, 2 acyl side, 3 side chain; linkers in the order of their positions; H or OH if unused. Positions of bridges follow the written chain, without caps; N, C: chain ends. Non-standard residues stand in square brackets, D forms with d. Residues, ends and D or L forms follow the SMILES beside them. Groups on a side chain read outwards from the residue. *: point of attachment. Trp(1-CH2COOH) = N[C@@H](Cc1cn(CC(=O)O)c2ccccc12)C(=O)O; Nle(6-morpholino) = N[C@@H](CCCCN1CCOCC1)C(=O)O; Phe(3-COOH) = N[C@@H](Cc1cccc(C(=O)O)c1)C(=O)O; Trp(7-aza) = N[C@@H](Cc1c[nH]c2ncccc12)C(=O)O; NH(CH2CH2O)8Me = COCCOCCOCCOCCOCCOCCOCCOCCN*; NMePhe(3-Cl) = CN[C@@H](Cc1cccc(Cl)c1)C(=O)O; Piperazinyl(4-CH2COOH) = O=C(O)CN1CCN(*)CC1; 3Pal(6-NH2) = Nc1ccc(C[C@H](N)C(=O)O)cn1; NMeY = CN[C@@H](Cc1ccc(O)cc1)C(=O)O; 4Pal = N[C@@H](Cc1ccncc1)C(=O)O; PEG4 = NCCOCCOCCOCCOCCC(=O)O; Carboxymethyl = O=C(O)C*; CO = O=C([*:1])[*:2]

Target: T1, human transferrin receptor (hTfR) (Homo sapiens, UniProt P02786)
T1 construct: made in house
T1 sequence (P02786 89-760 limits assumed): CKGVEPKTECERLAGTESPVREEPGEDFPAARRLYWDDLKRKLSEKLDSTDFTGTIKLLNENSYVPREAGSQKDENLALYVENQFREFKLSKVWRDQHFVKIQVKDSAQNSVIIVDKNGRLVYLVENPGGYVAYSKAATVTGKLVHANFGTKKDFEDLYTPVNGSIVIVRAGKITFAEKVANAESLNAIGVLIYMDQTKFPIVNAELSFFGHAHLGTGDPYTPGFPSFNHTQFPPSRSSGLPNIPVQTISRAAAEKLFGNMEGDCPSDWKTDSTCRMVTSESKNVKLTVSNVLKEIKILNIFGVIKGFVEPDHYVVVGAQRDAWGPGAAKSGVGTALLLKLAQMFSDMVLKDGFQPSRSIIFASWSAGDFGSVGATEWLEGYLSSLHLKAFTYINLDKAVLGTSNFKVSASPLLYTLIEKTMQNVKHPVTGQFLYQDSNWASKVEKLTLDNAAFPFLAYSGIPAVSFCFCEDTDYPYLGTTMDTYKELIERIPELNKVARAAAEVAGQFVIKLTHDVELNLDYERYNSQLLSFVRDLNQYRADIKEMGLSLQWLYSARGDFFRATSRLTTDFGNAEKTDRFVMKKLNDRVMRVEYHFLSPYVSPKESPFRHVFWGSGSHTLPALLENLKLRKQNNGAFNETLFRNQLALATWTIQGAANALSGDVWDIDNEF
Assay: Evaluation of molecular interaction between transferrin receptor (hTfR) and peptide using surface plasmon resonance (SPR)
Assay type: binding
Conditions: peptide with linker, surface plasmon resonance; read-out: SPR (KD class for binding to hTfR)
In short: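 Recombinant human TfR dimer (0.5 μM) was captured on a Ni-charged NTA chip and amine-coupled with EDC/NHS, then ethanolamine-capped. Peptides at 5–100 nM in HEPES pH 8.0 buffer with 150 mM NaCl, 0.05% Tween 20, 0.1% BSA and 1.0% DMSO were run by single-cycle kinetics; KD came from least-squares curve fitting.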

SMILES | Kd [nM]
CC[C@H](C)[C@@H]1NC(=O)[C@H](Cc2ccc(OC)cc2)NC(=O)[C@H](Cc2ccc(O)cc2)NC(=O)[C@H](CC(N)=O)NC(=O)[C@H](Cc2c[nH]c3ncccc23)NC(=O)[C@H](C(C)C)NC(=O)[C@H](Cc2cccc(Cl)c2)N(C)C(=O)[C@H](C(C)C)NC(=O)[C@H](C)NC(=O)CSC[C@@H](C(=O)NCCOCCOCCOCCOCCC(N)=O)NC(=O)[C@H](Cc2ccc(O)cc2)N(C)C(=O)[C@H](CCC(=O)NCCOCCOCCOCCOCCOCCOCCOCCOC)NC(=O)[C@H](CCCCN2CCOCC2)NC(=O)[C@H](CCC(=O)NCCOCCOCCOCCOCCOCCOCCOCCOC)NC(=O)[C@H]([C@@H](C)CC)NC1=O [compound 235] ({CH2CO}-AV[NMePhe(3-Cl)]V[Trp(7-aza)]NYY(Me)IIE(NH(CH2CH2O)8Me)[Nle(6-morpholino)]E(NH(CH2CH2O)8Me)[NMeY]C[PEG4]-NH2; thioether N-15) | 1 to 100
CC[C@H](C)[C@@H]1NC(=O)[C@H](Cc2ccc(OCC(=O)O)cc2)NC(=O)[C@H](Cc2ccc(N)nc2)NC(=O)[C@H](CC(N)=O)NC(=O)[C@H](Cc2c[nH]c3ccccc23)NC(=O)[C@H](C(C)C)NC(=O)[C@H](Cc2cccc(Cl)c2)N(C)C(=O)[C@H](C(C)C)NC(=O)[C@H](C)NC(=O)CSC[C@@H](C(=O)NCCOCCOCCOCCOCCC(N)=O)NC(=O)[C@H](Cc2ccc(O)cc2)N(C)C(=O)[C@H](Cc2cccc(C(=O)O)c2)NC(=O)[C@H](CCCNC(=N)N)NC(=O)[C@H](CCC(=O)NCCOCCOCCOCCOCCOCCOCCOCCOC)NC(=O)[C@H]([C@@H](C)CC)NC1=O [compound 238] ({CH2CO}-AV[NMePhe(3-Cl)]VWN[3Pal(6-NH2)]Y(Carboxymethyl)IIE(NH(CH2CH2O)8Me)R[Phe(3-COOH)][NMeY]C[PEG4]-NH2; thioether N-15) | 1 to 100
CC[C@H](C)[C@@H]1NC(=O)[C@H](Cc2ccc(OCC(=O)O)cc2)NC(=O)[C@H](Cc2ccc(N)nc2)NC(=O)[C@H](CC(N)=O)NC(=O)[C@H](Cc2c[nH]c3ncccc23)NC(=O)[C@H](C(C)C)NC(=O)[C@H](Cc2cccc(Cl)c2)N(C)C(=O)[C@H](C(C)C)NC(=O)[C@H](C)NC(=O)CSC[C@@H](C(=O)NCCOCCOCCOCCOCCC(N)=O)NC(=O)[C@H](Cc2ccc(O)cc2)N(C)C(=O)[C@H](Cc2cccc(C(=O)O)c2)NC(=O)[C@H](CCCNC(=N)N)NC(=O)[C@H](CCC(=O)NCCOCCOCCOCCOCCOCCOCCOCCOC)NC(=O)[C@H]([C@@H](C)CC)NC1=O [compound 239] ({CH2CO}-AV[NMePhe(3-Cl)]V[Trp(7-aza)]N[3Pal(6-NH2)]Y(Carboxymethyl)IIE(NH(CH2CH2O)8Me)R[Phe(3-COOH)][NMeY]C[PEG4]-NH2; thioether N-15) | 1 to 100
CC[C@H](C)[C@@H]1NC(=O)[C@H](Cc2ccc(O)cc2)NC(=O)[C@H](Cc2ccc(O)cc2)NC(=O)[C@H](CC(N)=O)NC(=O)[C@H](Cc2c[nH]c3ccccc23)N(C)C(=O)[C@H](C(C)C)NC(=O)[C@H](Cc2ccccc2)N(C)C(=O)[C@H](C(C)C)NC(=O)[C@H](C)NC(=O)CSC[C@@H](C(=O)NCC(=O)N[C@H](CCC(=O)O)C(=O)N[C@H](CCC(=O)O)C(=O)N[C@H](CCC(=O)O)C(=O)N[C@H](CO)C(=O)N[C@H](CO)C(=O)N[C@@H](CCCCN=[N+]=[N-])C(N)=O)NC(=O)[C@H](Cc2ccc(O)cc2)N(C)C(=O)[C@H](Cc2ccc(O)cc2)NC(=O)[C@H](CCCNC(=N)N)NC(=O)[C@H](CCCCN)NC(=O)[C@H]([C@@H](C)CC)NC1=O [compound 241] | 1 to 100

Now from value to compound:

Kd [nM] | SMILES
1 to 100 | CC[C@H](C)[C@@H]1NC(=O)[C@H](Cc2ccc(OC)cc2)NC(=O)[C@H](Cc2ccc(N)nc2)NC(=O)[C@H](CC(N)=O)NC(=O)[C@H](Cc2c[nH]c3ncccc23)NC(=O)[C@H](C(C)C)NC(=O)[C@H](Cc2cccc(Cl)c2)N(C)C(=O)[C@H](C(C)C)NC(=O)[C@H](C)NC(=O)CSC[C@@H](C(=O)NCCOCCOCCOCCOCCC(N)=O)NC(=O)[C@H](Cc2ccc(O)cc2)N(C)C(=O)[C@H](Cc2ccncc2)NC(=O)[C@H](CCCCN2CCOCC2)NC(=O)[C@H](CCC(=O)NCCOCCOCCOCCOCCOCCOCCOCCOC)NC(=O)[C@H]([C@@H](C)CC)NC1=O [compound 236] ({CH2CO}-AV[NMePhe(3-Cl)]V[Trp(7-aza)]N[3Pal(6-NH2)]Y(Me)IIE(NH(CH2CH2O)8Me)[Nle(6-morpholino)][4Pal][NMeY]C[PEG4]-NH2; thioether N-15)
1 to 100 | CC[C@H](C)[C@@H]1NC(=O)[C@H](Cc2ccc(OC)cc2)NC(=O)[C@H](Cc2ccc(N)nc2)NC(=O)[C@H](CC(N)=O)NC(=O)[C@H](Cc2c[nH]c3ncccc23)NC(=O)[C@H](C(C)C)NC(=O)[C@H](Cc2cccc(Cl)c2)N(C)C(=O)[C@H](C(C)C)NC(=O)[C@H](C)NC(=O)CSC[C@@H](C(=O)NCCOCCOCCOCCOCCC(N)=O)NC(=O)[C@H](Cc2ccc(O)cc2)N(C)C(=O)[C@H](Cc2ccncc2)NC(=O)[C@H](CCCCNC(=O)N2CCN(CC(=O)O)CC2)NC(=O)[C@H](CCC(=O)NCCOCCOCCOCCOCCOCCOCCOCCOC)NC(=O)[C@H]([C@@H](C)CC)NC1=O [compound 237] ({CH2CO}-AV[NMePhe(3-Cl)]V[Trp(7-aza)]N[3Pal(6-NH2)]Y(Me)IIE(NH(CH2CH2O)8Me)K([CO-Piperazinyl(4-CH2COOH)])[4Pal][NMeY]C[PEG4]-NH2; thioether N-15)
1 to 100 | CC[C@H](C)[C@@H]1NC(=O)[C@H](Cc2ccc(OCC(=O)O)cc2)NC(=O)[C@H](Cc2ccc(O)cc2)NC(=O)[C@H](CC(N)=O)NC(=O)[C@H](Cc2cn(CC(=O)O)c3ccccc23)NC(=O)[C@H](C(C)C)NC(=O)[C@H](Cc2cccc(Cl)c2)N(C)C(=O)[C@H](C(C)C)NC(=O)[C@H](C)NC(=O)CSC[C@@H](C(=O)NCCOCCOCCOCCOCCC(N)=O)NC(=O)[C@H](Cc2ccc(O)cc2)N(C)C(=O)[C@H](Cc2cccc(C(=O)O)c2)NC(=O)[C@H](CCCCN2CCOCC2)NC(=O)[C@H](CCCCN2CCOCC2)NC(=O)[C@H]([C@@H](C)CC)NC1=O [compound 240] ({CH2CO}-AV[NMePhe(3-Cl)]V[Trp(1-CH2COOH)]NYY(Carboxymethyl)II[Nle(6-morpholino)][Nle(6-morpholino)][Phe(3-COOH)][NMeY]C[PEG4]-NH2; thioether N-15)
